± gives the standard deviation of the averaged measurements.
Assays:
Assay in all cases: relative viability vs DMSO control (72 h) (fraction); higher = more viable cells
[1] = test system: KHOS-240S
Procedure, shortened: (§1)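 Plates held 72 h at 37 °C and 5% CO2 contained sarcoma cell lines seeded in 384-well format to reach 80–90% confluence, plus 2.5 µl of serially diluted compound added after 24 h. Source plate concentrations ran from 10 mM to 0.0002 mM, with 0.1% DMSO as vehicle and a 5 µM positive control. Percent growth from ATPLite readings, averaged over up to triplicate wells, gave relative viability. Values were rescaled with 1 as full and 0 as none.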

[2] = test system: RD
Procedure, shortened: as §1

[3] = test system: SYO-1
Procedure, shortened: as §1

[4] = test system: MES-SA
Procedure, shortened: as §1

[5] = test system: SW1353
Procedure, shortened: as §1

[6] = test system: SW982
Procedure, shortened: as §1

[7] = test system: VA-ES-BJ
Procedure, shortened: as §1

[8] = test system: HT1080
Procedure, shortened: as §1

[9] = test system: SK-LMS-1
Procedure, shortened: as §1

[10] = test system: RD-ES
Procedure, shortened: as §1

[11] = test system: G401
Procedure, shortened: as §1

[12] = test system: SK-ES-1
Procedure, shortened: as §1

C=CC(=O)Nc1cccc(Nc2nc(Nc3ccc(N4CCN(C(C)=O)CC4)cc3OC)ncc2C(F)(F)F)c1 [Rociletinib]
Conditions | relative viability
[1], 0.00017 µM | 1.08 ± 0.059
[1], 0.00051 µM | 1.06 ± 0.033
[1], 0.00152 µM | 1.07 ± 0.03
[1], 0.00457 µM | 1.07 ± 0.037
[1], 0.01372 µM | 1.07 ± 0.061
[1], 0.04115 µM | 1.03 ± 0.03
[1], 0.1235 µM | 1.08 ± 0.056
[1], 0.3704 µM | 1.02 ± 0.042
[1], 1.111 µM | 0.928 ± 0.046
[1], 3.333 µM | 0.774 ± 0.017
[1], 10 µM | 0.491 ± 0.022
[2], 0.00017 µM | 1.04 ± 0.051
[2], 0.00051 µM | 1.078 ± 0.007
[2], 0.00152 µM | 1.08 ± 0.017
[2], 0.00457 µM | 1.112 ± 0.0076
[2], 0.01372 µM | 1.11 ± 0.035
[2], 0.04115 µM | 1.08 ± 0.03
[2], 0.1235 µM | 1.11 ± 0.021
[2], 0.3704 µM | 1.05 ± 0.017
[2], 1.111 µM | 0.911 ± 0.043
[2], 3.333 µM | 0.594 ± 0.025
[2], 10 µM | 0.293 ± 0.015
[3], 0.00017 µM | 0.99 ± 0.029
[3], 0.00051 µM | 0.983 ± 0.053
[3], 0.00152 µM | 0.949 ± 0.05
[3], 0.00457 µM | 0.93 ± 0.061
[3], 0.01372 µM | 0.893 ± 0.044
[3], 0.04115 µM | 0.903 ± 0.041
[3], 0.1235 µM | 0.872 ± 0.047
[3], 0.3704 µM | 0.867 ± 0.12
[3], 1.111 µM | 0.749 ± 0.099
[3], 3.333 µM | 0.459 ± 0.061
[3], 10 µM | 0.118 ± 0.024
[4], 0.00017 µM | 0.95 ± 0.023
[4], 0.00051 µM | 0.955 ± 0.016
[4], 0.00152 µM | 0.942 ± 0.031
[4], 0.00457 µM | 0.957 ± 0.028
[4], 0.01372 µM | 0.942 ± 0.017
[4], 0.04115 µM | 0.944 ± 0.018
[4], 0.1235 µM | 0.926 ± 0.051
[4], 0.3704 µM | 0.9383 ± 0.0079
[4], 1.111 µM | 0.765 ± 0.01
[4], 3.333 µM | 0.329 ± 0.012
[4], 10 µM | 0.193 ± 0.014
[5], 0.00017 µM | 1.04 ± 0.025
[5], 0.00051 µM | 1 ± 0.035
[5], 0.00152 µM | 1.01 ± 0.018
[5], 0.00457 µM | 1.06 ± 0.056
[5], 0.01372 µM | 1 ± 0.06
[5], 0.04115 µM | 1.01 ± 0.042
[5], 0.1235 µM | 1.01 ± 0.027
[5], 0.3704 µM | 0.962 ± 0.025
[5], 1.111 µM | 0.769 ± 0.032
[5], 3.333 µM | 0.594 ± 0.013
[5], 10 µM | 0.338 ± 0.021
[6], 0.00017 µM | 1.01 ± 0.021
[6], 0.00051 µM | 1.05 ± 0.028
[6], 0.00152 µM | 1.08 ± 0.038
[6], 0.00457 µM | 1.07 ± 0.02
[6], 0.01372 µM | 1.05 ± 0.017
[6], 0.04115 µM | 1.04 ± 0.033
[6], 0.1235 µM | 1.04 ± 0.076
[6], 0.3704 µM | 1.05 ± 0.037
[6], 1.111 µM | 0.911 ± 0.022
[6], 3.333 µM | 0.6095 ± 0.00081
[6], 10 µM | 0.265 ± 0.013
[7], 0.00017 µM | 1.04 ± 0.071
[7], 0.00051 µM | 1.05 ± 0.025
[7], 0.00152 µM | 1.02 ± 0.056
[7], 0.00457 µM | 1.03 ± 0.039
[7], 0.01372 µM | 0.981 ± 0.046
[7], 0.04115 µM | 0.991 ± 0.043
[7], 0.1235 µM | 0.994 ± 0.02
[7], 0.3704 µM | 0.972 ± 0.043
[7], 1.111 µM | 0.915 ± 0.038
[7], 3.333 µM | 0.648 ± 0.066
[7], 10 µM | 0.399 ± 0.021
[8], 0.00017 µM | 1.07 ± 0.019
[8], 0.00051 µM | 1.06 ± 0.034
[8], 0.00152 µM | 1.05 ± 0.045
[8], 0.00457 µM | 1.06 ± 0.035
[8], 0.01372 µM | 1.04 ± 0.04
[8], 0.04115 µM | 1.03 ± 0.044
[8], 0.1235 µM | 1.06 ± 0.049
[8], 0.3704 µM | 1.1 ± 0.038
[8], 1.111 µM | 1.03 ± 0.018
[8], 3.333 µM | 0.997 ± 0.024
[8], 10 µM | 0.454 ± 0.012
[9], 0.00017 µM | 1.07 ± 0.012
[9], 0.00051 µM | 1.089 ± 0.0035
[9], 0.00152 µM | 1.07 ± 0.058
[9], 0.00457 µM | 1.07 ± 0.025
[9], 0.01372 µM | 1.05 ± 0.069
[9], 0.04115 µM | 1.03 ± 0.019
[9], 0.1235 µM | 1.04 ± 0.012
[9], 0.3704 µM | 0.961 ± 0.06
[9], 1.111 µM | 0.847 ± 0.033
[9], 3.333 µM | 0.638 ± 0.0093
[9], 10 µM | 0.373 ± 0.023
[10], 0.00017 µM | 0.965 ± 0.06
[10], 0.00051 µM | 0.962 ± 0.013
[10], 0.00152 µM | 0.961 ± 0.012
[10], 0.00457 µM | 0.979 ± 0.025
[10], 0.01372 µM | 0.967 ± 0.014
[10], 0.04115 µM | 1 ± 0.013
[10], 0.1235 µM | 0.937 ± 0.038
[10], 0.3704 µM | 0.889 ± 0.0055
[10], 1.111 µM | 0.673 ± 0.027
[10], 3.333 µM | 0.453 ± 0.018
[10], 10 µM | 0.125 ± 0.0072
[11], 0.00017 µM | 1.04 ± 0.039
[11], 0.00051 µM | 1.07 ± 0.048
[11], 0.00152 µM | 1.04 ± 0.013
[11], 0.00457 µM | 1.05 ± 0.061
[11], 0.01372 µM | 1.04 ± 0.054
[11], 0.04115 µM | 1.02 ± 0.052
[11], 0.1235 µM | 1.05 ± 0.033
[11], 0.3704 µM | 1.02 ± 0.048
[11], 1.111 µM | 0.827 ± 0.029
[11], 3.333 µM | 0.54 ± 0.014
[11], 10 µM | 0.211 ± 0.016
[12], 0.00017 µM | 0.973 ± 0.033
[12], 0.00051 µM | 1.02 ± 0.036
[12], 0.00152 µM | 1.03 ± 0.027
[12], 0.00457 µM | 1.06 ± 0.045
[12], 0.01372 µM | 1 ± 0.073
[12], 0.04115 µM | 1.03 ± 0.071
[12], 0.1235 µM | 1.02 ± 0.025
[12], 0.3704 µM | 0.943 ± 0.05
[12], 1.111 µM | 0.658 ± 0.07
[12], 3.333 µM | 0.232 ± 0.024
[12], 10 µM | 0.0621 ± 0.0023

Source: the supplement of paper PMC10883282
